Laboratory results reported in patent US8895570B2, “Purine derivatives” (AstraZeneca AB, priority 2010, dated 2014).

What was measured:
[1] = Human plasma stability; format: in vitro ADME; details: 37° C.
Protocol: To determine the half life of the test compound in human plasma, incubations were performed at 37° C. in a shaking water bath. Compound (5 μl of 100 μM stock in MeCN) was spiked into 0.495 mL plasma to give final incubation concentration of 1 μM. Aliquots (50 μl) were withdrawn at various time points (typically 0, 20 & 40 sec, 1, 2, 3, 5 & 10 mins) and quenched into MeCN ([…]) followed by analysis for parent compound by LC-MS-MS (MRM mode). The half life was calculated from the decline of test compound peak area over time. • Example 1 (Compound (I)) gave a half life of 0.6 minutes (n=1). • Comparative Example 1 gave a half life of 0.2 minutes (n=1).

[2] = target: T1, CYP3A4 (Homo sapiens, UniProt P08684); experiment: CYP inhibition; format: in vitro ADME; details: expressed in E. coli membranes, substrate midazolam, LC-MS-MS; read-out: Mean pIC50 CYP3A4 (converted)
T1 construct: made in house; host or cells: E. coli (membranes)
Protocol: (§1) The five major human hepatic Cytochrome P450 isoforms, 1A2, 2C9, 2C19, 2D6 and 3A4 were heterologously expressed in E. coli membranes. Each of the five CYPs were incubated with a cocktail of specific substrates; phenacetin, diclofenac, 5-mephenyloin, bufuralol and midazolam, which are predominantly metabolised by CYP 1A2, 2C9, 2C19, 2D6 and 3A4 respectively plus the test compound.
(§2) The substrates were incubated, at concentrations equivalent to their respective Km values, and LC-MS-MS (MRM mode) was used in order to follow the formation of their specific metabolites. The ability of the test compound to inhibit the CYP isoforms was determined by following any decrease in the amount of the specific metabolites formed at six different inhibitor concentrations.
(§3) The rates of reaction were calculated by measuring MS/MS area units and data analysis was performed by linearising the data using a pseudo Hill plot. The IC50 ie the concentration of the test compound that decreases the amount of metabolite formed by 50% was determined.

[3] = target: T2, CYP2C19 (Homo sapiens, UniProt P33261); experiment: CYP inhibition; format: in vitro ADME; details: expressed in E. coli membranes, substrate 5-mephenyloin, LC-MS-MS; read-out: Mean pIC50 CYP2C19 (converted)
T2 construct: made in house; host or cells: E. coli (membranes)
Protocol: as §1, §2, §3

[4] = target: T3, CYP2C9 (Homo sapiens, UniProt P11712); experiment: CYP inhibition; format: in vitro ADME; details: expressed in E. coli membranes, substrate diclofenac, LC-MS-MS; read-out: Mean pIC50 CYP2C9 (converted)
T3 construct: made in house; host or cells: E. coli (membranes)
Protocol: as §1, §2, §3

[5] = target: T4, CYP2D6 (Homo sapiens, UniProt P10635); experiment: CYP inhibition; format: in vitro ADME; details: expressed in E. coli membranes, substrate bufuralol, LC-MS-MS; read-out: Mean pIC50 CYP2D6 (converted)
T4 construct: made in house; host or cells: E. coli (membranes)
Protocol: as §1, §2, §3

[6] = target: T5, CYP1A2 (Homo sapiens, UniProt P05177); experiment: CYP inhibition; format: in vitro ADME; details: expressed in E. coli membranes, substrate phenacetin, LC-MS-MS; read-out: Mean pIC50 CYP1A2 (converted)
T5 construct: made in house; host or cells: E. coli (membranes)
T5 sequence (P05177 1-516): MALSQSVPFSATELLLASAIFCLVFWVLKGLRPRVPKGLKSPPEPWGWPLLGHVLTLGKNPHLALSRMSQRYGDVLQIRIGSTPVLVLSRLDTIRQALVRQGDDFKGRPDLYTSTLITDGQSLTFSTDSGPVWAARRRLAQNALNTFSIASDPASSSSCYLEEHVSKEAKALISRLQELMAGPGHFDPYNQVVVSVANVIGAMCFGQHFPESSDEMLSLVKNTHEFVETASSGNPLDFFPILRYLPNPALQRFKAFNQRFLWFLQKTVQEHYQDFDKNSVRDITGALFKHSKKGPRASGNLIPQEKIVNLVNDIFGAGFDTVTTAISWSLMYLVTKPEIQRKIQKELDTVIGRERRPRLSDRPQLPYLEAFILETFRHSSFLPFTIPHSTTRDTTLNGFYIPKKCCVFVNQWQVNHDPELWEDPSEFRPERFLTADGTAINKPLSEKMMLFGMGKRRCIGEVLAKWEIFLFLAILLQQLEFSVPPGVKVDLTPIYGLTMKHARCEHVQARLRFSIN
Protocol: as §1, §2, §3

[7] = target: T6, human TLR7 (Homo sapiens, UniProt Q9NYK1); experiment: Human TLR7 assay (SEAP reporter in HEK293 cells); format: cell-based; details: HEK293 cells expressing recombinant human TLR7, overnight incubation at 37° C., 0.1% DMSO; read-out: mean pEC50 (SEAP induction) (converted)
T6 construct: expressed in transfected cells; host or cells: HEK293 stably expressing pNiFty2-SEAP reporter; TLR7 in pUNO vector
T6 sequence (Q9NYK1 27-1049): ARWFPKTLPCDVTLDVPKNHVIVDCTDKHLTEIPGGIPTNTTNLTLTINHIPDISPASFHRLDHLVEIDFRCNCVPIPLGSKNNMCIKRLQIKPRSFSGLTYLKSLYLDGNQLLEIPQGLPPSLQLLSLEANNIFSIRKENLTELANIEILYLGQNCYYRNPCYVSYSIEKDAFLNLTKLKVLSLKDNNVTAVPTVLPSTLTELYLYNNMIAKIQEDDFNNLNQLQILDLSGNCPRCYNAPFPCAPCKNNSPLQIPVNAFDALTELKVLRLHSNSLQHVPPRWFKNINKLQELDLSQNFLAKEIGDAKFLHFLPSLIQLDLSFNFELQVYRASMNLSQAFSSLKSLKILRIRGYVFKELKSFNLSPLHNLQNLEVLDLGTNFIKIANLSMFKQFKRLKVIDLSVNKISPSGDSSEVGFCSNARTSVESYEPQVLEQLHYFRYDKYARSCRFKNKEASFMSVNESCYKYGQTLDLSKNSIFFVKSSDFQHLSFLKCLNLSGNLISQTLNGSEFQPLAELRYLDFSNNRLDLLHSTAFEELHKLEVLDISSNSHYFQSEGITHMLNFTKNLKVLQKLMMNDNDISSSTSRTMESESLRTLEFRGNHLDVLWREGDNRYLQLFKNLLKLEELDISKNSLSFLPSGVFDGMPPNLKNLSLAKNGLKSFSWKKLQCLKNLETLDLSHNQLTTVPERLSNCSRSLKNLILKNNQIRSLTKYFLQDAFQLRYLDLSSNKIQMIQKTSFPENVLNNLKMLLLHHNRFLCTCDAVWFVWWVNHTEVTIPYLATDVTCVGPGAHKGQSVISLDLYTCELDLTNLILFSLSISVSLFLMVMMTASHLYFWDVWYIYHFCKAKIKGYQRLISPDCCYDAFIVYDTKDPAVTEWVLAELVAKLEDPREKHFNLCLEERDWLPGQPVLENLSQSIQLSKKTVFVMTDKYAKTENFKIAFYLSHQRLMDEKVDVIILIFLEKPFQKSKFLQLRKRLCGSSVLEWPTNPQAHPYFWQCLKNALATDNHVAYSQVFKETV
Text: Recombinant human TLR7 was stably expressed in a HEK293 cell line already stably expressing the pNiFty2-SEAP reporter plasmid; integration of the reporter gene was maintained by selection with the antibiotic zeocin. The most common variant sequence of human TLR7 (represented by the EMBL sequence AF240467) was cloned into the mammalian cell expression vector pUNO and transfected into this reporter cell-line. Transfectants with stable expression were selected using the antibiotic blasticidin. In this reporter cell-line, expression of secreted alkaline phosphatase (SEAP) is controlled by an NFkB/ELAM-1 composite promoter comprising five NFkB sites combined with the proximal ELAM-1 promoter. TLR signaling leads to the translocation of NFkB and activation of the promoter results in expression of the SEAP gene. TLR7-specific activation was assessed by determining the level of SEAP produced following overnight incubation of the cells at 37° C. with the standard compound in the presence of 0.1% (v/v) dimethylsulfoxide (DMSO). […] Human Skin Cytokine Production

[8] = tested on: interleukin-13 (IL-13) production in human skin biopsies; experiment: Human skin cytokine production (PHA-induced IL-13 in skin biopsies); format: cell-based; details: PHA-stimulated human skin biopsies, 24 hours
Protocol: Normal human skin biopsies were obtained, with informed consent, from healthy patients undergoing surgical cosmetic procedures. 3 mm full thickness skin biopsies were taken using a biopsy punch. A hole was cut in a Transwell filter (pore size 0.4 μm) using a punch and the skin biopsy inserted in the hole. The filter containing the biopsy was placed in the well of a 24-well culture plate containing 1.25 ml of culture medium (RPMI containing 1% heat-inactivated human serum) with the epidermis facing upwards at the liquid-air interface. Culture plates containing the biopsies were incubated at 37° C., in an atmosphere of 5% CO2 in air, for 24 hours. Biopsies were cultured in the absence or presence of phytohaemagglutinin (PHA) (1 mg/ml) added to the culture medium to induce a cytokine response in the tissue.

[9] = Maximal solubility in phosphate citrate buffer pH 3.0; format: physicochemical
[10] = compound applied topically at 1/10 max. solubility
[11] = compound applied topically at max. solubility

T3 sequence (P11712 whole entry): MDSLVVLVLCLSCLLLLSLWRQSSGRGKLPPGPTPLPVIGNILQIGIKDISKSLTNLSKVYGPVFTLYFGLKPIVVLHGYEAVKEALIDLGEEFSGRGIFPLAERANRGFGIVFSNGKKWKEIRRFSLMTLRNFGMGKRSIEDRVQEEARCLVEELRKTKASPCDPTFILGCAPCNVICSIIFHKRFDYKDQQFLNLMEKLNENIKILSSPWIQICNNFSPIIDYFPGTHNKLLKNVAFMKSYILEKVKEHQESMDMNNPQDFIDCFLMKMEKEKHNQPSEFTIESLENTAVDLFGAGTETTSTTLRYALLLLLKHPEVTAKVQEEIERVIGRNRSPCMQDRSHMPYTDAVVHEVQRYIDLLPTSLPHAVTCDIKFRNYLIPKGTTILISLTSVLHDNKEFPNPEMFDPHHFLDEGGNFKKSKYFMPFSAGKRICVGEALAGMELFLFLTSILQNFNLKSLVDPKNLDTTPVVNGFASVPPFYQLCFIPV
T2 sequence (P33261 whole entry): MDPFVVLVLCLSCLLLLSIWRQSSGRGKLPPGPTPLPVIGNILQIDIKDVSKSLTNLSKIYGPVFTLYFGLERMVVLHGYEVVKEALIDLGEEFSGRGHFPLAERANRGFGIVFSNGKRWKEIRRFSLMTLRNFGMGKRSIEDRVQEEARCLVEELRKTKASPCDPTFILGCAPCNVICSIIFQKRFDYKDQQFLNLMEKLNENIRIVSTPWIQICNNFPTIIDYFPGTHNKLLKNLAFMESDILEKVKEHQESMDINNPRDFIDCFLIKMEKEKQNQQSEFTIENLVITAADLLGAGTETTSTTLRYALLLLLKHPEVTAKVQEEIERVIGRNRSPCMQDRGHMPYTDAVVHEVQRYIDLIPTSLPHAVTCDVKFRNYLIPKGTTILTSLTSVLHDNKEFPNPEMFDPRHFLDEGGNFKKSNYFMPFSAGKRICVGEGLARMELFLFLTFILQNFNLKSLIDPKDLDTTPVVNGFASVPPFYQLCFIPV
T4 sequence (P10635 whole entry): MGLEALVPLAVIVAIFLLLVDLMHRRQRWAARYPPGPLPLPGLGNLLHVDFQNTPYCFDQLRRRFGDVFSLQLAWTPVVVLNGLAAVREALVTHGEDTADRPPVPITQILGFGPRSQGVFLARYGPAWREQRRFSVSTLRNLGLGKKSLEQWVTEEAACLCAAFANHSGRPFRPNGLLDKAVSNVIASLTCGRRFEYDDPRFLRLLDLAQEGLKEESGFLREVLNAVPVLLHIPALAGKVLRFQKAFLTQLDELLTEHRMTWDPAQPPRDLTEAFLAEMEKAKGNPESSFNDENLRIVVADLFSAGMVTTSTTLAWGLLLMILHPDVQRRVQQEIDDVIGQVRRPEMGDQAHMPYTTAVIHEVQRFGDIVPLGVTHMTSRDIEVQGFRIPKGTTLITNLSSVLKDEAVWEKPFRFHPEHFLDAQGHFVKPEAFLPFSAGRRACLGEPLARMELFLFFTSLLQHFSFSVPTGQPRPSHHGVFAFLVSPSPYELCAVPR
T1 sequence (P08684 whole entry): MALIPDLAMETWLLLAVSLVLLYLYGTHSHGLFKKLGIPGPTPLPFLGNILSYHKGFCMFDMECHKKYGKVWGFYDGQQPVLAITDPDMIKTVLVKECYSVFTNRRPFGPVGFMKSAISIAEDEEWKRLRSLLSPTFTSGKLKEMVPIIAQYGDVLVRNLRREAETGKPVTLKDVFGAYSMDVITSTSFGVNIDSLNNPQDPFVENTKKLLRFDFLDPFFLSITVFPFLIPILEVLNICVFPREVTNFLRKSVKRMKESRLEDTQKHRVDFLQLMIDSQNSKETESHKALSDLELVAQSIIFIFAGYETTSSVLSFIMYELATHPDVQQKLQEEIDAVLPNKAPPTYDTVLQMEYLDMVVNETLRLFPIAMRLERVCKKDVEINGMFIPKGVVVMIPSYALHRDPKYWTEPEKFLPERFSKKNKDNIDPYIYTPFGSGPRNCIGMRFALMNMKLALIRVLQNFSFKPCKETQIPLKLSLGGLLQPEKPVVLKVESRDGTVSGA

SMILES	half-life at 1 μM [1] [s]	IC50 [2] [µM]	IC50 [3] [µM]	IC50 [4] [µM]	IC50 [5] [µM]	IC50 [6] [µM]	EC50 [7] [µM]	% Inhibition of response [8, 10] [%]	IL-13 (pg/ml) Mean ± SEM [8, 10] [pg/mL]	% Inhibition of response [8, 11] [%]	IL-13 (pg/ml) Mean ± SEM [8, 11] [pg/mL]	maximal solubility in phosphate citrate buffer pH 3.0 [9]
CCCCOc1nc(N)c2[nH]c(=O)n(CCCN(CCCN3CCCCC3)Cc3cccc(CC(=O)OC)c3)c2n1 [Comparative Example 1, Methyl [3-({[3-(6-amino-2-butoxy-8-oxo-7,8-dihydro-9H-purin-9-yl)propyl][3-(piperidin-1-yl)propyl]amino}methyl)phenyl]acetate, reference compound]	12	0.0132	> 30.2	> 29.5	13.5	> 30.2	0.158					
CCCCOc1nc(N)c2[nH]c(=O)n(CCCN(CCCN3CCCCC3)Cc3ccc(CC(=O)OC)cc3)c2n1 [Example 1, Methyl [4-({[3-(6-amino-2-butoxy-8-oxo-7,8-dihydro-9H-purin-9-yl)propyl][3-(piperidin-1-yl)propyl]amino}methyl)phenyl]acetate]	36	0.468	> 3.02	> 3.02	> 3.02	> 3.02	0.251	55	4.8 ± 0.8	87	1.9 ± 0.8	4.1-4.4 % w/w
